Literature values as cited in patent publication US8882743B2, “Apparatus and method for application of a pharmaceutical to the tympanic membrane for photodynamic laser myringotomy” (priority 2006, dated 2014).

System: tympanic membrane
Details: lance myringotomy with concomitant mitomycin-C versus myringotomy without mitomycin-C

CO[C@@]12[C@H](COC(N)=O)C3=C(C(=O)C(C)=C(N)C3=O)N1C[C@@H]1N[C@@H]12 [mitomycin-C]
time required for closure of the fistulae formed: statistically significant increase
